From patent EP3319959B1, “HETERO-HALO INHIBITORS OF HISTONE DEACETYLASE” (Alkermes, Inc., priority 2015, dated 2017)

How the values were obtained:
[1] = target: HDAC1 (Homo sapiens, UniProt Q13547); test: Reporter displacement assay (HDAC1); type: binding
[2] = target: T1, HDAC2 (Homo sapiens, UniProt Q92769); test: Reporter displacement assay (HDAC2); type: binding; settings: 20 nM HDAC2, 180 nM reporter probe, read after 4 hours; Kd by Cheng Prusoff equation
T1 construct: purchased Proteros
Experimental: HDAC2 containing a C-terminal HIS-Tag (Proteros) and fluorescently-labeled anti-HIS-antibody are diluted in one vial in assay buffer 50 mM Tris, pH 8.0, 1 mM DTT, 150 mM NaCl, and 0.01% Tween20. Components are pre-incubated for 30 min, then a small volume of reporter probe (Proteros) is added from a highly concentrated stock and incubation is continued for another 30 min. […] Ten µl/well of pre-formed complex are transferred into 384 well assay plates (Corning). Compounds to be profiled are serially diluted from 1x10^1 - 5.7x10^-5 mM in DMSO and 60 nl are added to assay plates by pintool transfer (CybiWell, Cybio). Fluorescence intensity signal is read after 4 hours in a Pherastar FS (BMG Labtech) at 337/665 nm. For Kd determination, percent probe displacement values are calculated for each compound concentration and plotted against the compound concentration. […] Since the reporter probe is used at a concentration reflecting its own Kd value, compound Kd values can be calculated according to the Cheng Prusoff equation. […] Table 4. HDAC1 and HDAC2 Kd Values for Exemplary Compounds Useful in the Invention

[3] = target: T1, HDAC2; test: Reporter displacement assay (HDAC2); type: binding
[4] = test system: SH-SY5Y cells; test: Cell assay in SH-SY5Y cells with HDAC-Glo 2 reagent; type: cell-based; settings: Homo sapiens, 5 h, five hours at 37°C, CI-994 at 100 uM defined as 100% inhibition
Experimental: SH-SY5Y cells (Sigma) were cultured in Eagle's Modified Essential Medium supplemented with 10% fetal bovine serum and pen/strep. Twenty-four hours prior to compound dosing 20 uL of cells were plated in white 384 well plates at a density of 1,500 cells/well. Compounds were serially diluted in neat DMSO and then diluted 1:100 v/v into media without FBS and mixed. Media was removed from the plated cells and the diluted compounds in serum free media (1% v/v final DMSO) were added and incubated at 37°C for five hours. Ten uL of HDAC-Glo 2 reagent with 0.1% Triton X-100 was then added, the plate was mixed and allowed to develop at room temperature for 100 minutes. Plates were then read with a Spectramax LMax luminometer employing a 0.4s integration time. Dose response curves were constructed with normalized data where CI-994 at 100 uM was defined as 100% inhibition and DMSO alone as 0% inhibition. Table 5. IC50 and EC50 Values for Exemplary Compounds Useful in the Invention

[5] = test system: recombinant human HDACs; test: HDAC enzymatic assay (LabChip capillary electrophoresis); type: biochemical; settings: 5 nM HDAC enzyme, 1 uM substrate, 5 hours pre-incubation, 17 hours reaction at 25°C; isoform not given
Experimental: All recombinant human HDACs were purchased from BPS Bioscience. The substrate, FAM-TSRHK(AC)KL-CONH, was synthesized at NanoSyn. Final assay reactions contained 100 mM HEPES (pH 7.5), 50 mM KCl, 0.1% BSA, 0.01% Triton X-100, 1% DMSO, 1 uM substrate and 5 nM HDAC enzyme. Enzyme and compounds were pre-incubated at 25°C for 5 hours and reactions were initiated by addition of substrate. 10 uL reactions were incubated for 17 hours at 25°C and terminated by the addition of 40 uL of buffer containing 100 mM HEPES (pH 7.5), 0.1% BSA, 0.01% Triton X-100 and 0.05% SDS. Substrate and product peptides present in each sample were separated electrophoretically using the LabChip 3000 capillary electrophoresis instrument. Change in the relative fluorescence intensity of the substrate and product peaks reflects enzyme activity. Reaction progress was determined as the product to sum ratio (PSR): P/(S+P), where P is the peak height of the product peptide and S is the peak height of the substrate peptide. Reactions were performed in duplicate at 12 concentrations, (3X serial dilutions starting at 30 uM). IC50 values were calculated using a 4 Parameter Logistic Model.

T1 sequence (Q92769 whole entry): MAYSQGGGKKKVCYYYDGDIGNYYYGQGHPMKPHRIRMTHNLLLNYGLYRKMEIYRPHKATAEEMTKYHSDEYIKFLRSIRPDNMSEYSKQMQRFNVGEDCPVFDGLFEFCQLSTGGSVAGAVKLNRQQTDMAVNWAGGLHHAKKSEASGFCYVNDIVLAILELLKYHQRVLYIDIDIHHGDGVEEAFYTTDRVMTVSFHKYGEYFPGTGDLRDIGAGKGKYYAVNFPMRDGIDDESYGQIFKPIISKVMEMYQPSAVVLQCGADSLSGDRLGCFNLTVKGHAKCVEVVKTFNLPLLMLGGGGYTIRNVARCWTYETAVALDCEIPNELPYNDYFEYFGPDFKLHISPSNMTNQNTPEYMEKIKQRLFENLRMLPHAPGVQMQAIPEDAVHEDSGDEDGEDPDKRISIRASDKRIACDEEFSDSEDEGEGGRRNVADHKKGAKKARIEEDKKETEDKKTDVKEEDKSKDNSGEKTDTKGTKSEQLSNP
Chain of HDAC1 (Q13547 whole entry): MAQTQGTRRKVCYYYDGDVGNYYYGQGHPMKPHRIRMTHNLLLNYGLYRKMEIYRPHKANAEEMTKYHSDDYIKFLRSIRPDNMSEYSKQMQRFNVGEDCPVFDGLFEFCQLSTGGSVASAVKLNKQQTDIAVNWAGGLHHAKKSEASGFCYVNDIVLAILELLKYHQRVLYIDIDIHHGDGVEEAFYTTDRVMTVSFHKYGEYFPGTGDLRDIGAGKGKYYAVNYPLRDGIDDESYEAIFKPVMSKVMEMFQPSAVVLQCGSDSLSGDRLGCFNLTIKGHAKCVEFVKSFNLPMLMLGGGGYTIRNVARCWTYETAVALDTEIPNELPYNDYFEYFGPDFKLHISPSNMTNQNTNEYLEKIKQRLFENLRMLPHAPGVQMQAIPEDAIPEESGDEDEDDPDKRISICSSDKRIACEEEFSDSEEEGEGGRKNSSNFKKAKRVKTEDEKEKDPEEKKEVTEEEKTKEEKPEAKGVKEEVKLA

Row | Structure (SMILES) | Kd [1] [nM] | residence time [1] [min] | Kd [2] [nM] | residence time [3] [min] | EC50 [4] [nM] | IC50 [5] [nM]
1 | Nc1nn(-c2ccncc2)cc1NC(=O)N1Cc2ccncc2C1 [Compound 103] | > 5000 |  | > 5000 |  |  | 
2 | Nc1nn(-c2ccccc2)cc1NC(=O)N1Cc2ccncc2C1 [Compound 101] | > 5000 |  | > 5000 |  |  | 
3 | CN1CCC(N2C[C@@H]3[C@H](C2)[C@H]3C(=O)Nc2nc(-c3ccc(F)cc3)ccc2N)CC1 (stereo in doubt) [Compound 263] |  |  |  |  | 500 to 5000 | 500 to 5000
4 | CN1CCC(c2cnc3c(c2)CN(C(=O)Nc2nc(-c4cccs4)ccc2N)C3)CC1 [Compound 250] |  |  |  |  | 100 to 500 | 100 to 500
5 | Nc1ccc(-c2ccc(F)cc2)c(F)c1NC(=O)C1CCOCC1 [Compound 118] | 500 to 5000 | 69 | 500 to 5000 | 176 |  | 
6 | COC[C@@H]1[C@H]2CN(C(=O)Nc3nc(-c4ccc(F)cc4)ccc3N)C[C@@H]12 [Compound 276] |  |  |  |  | 500 to 5000 | 500 to 5000
7 | Nc1ccc(-c2ccc(F)cc2)nc1NC(=O)N1Cc2cc(CN3CCC(F)(F)C3)cnc2C1 [Compound 273] |  |  |  |  | 100 to 500 | 100 to 500
8 | Nc1cc(F)c(-c2ccc(F)cc2)cc1NC(=O)C1CCOCC1 [Compound 115] | > 5000 |  | 500 to 5000 | 185 |  | 
9 | Nc1nn(-c2ccc(F)cc2)cc1NC(=O)N1Cc2ccncc2C1 [Compound 102] | > 5000 |  | > 5000 |  |  | 
10 | CN(C)Cc1ccc(C2CN(C(=O)Nc3nc(-c4ccc(F)cc4)ccc3N)C2)cc1 [Compound 146] |  |  |  |  | 500 to 5000 | 100 to 500
11 | Nc1ccc(-c2ccc(F)cc2)nc1NC(=O)N1Cc2ccc(CO)cc2C1 [Compound 366] |  |  |  |  | 500 to 5000 | 100 to 500
12 | Nc1ccc(-c2cccs2)nc1NC(=O)N1Cc2cc(CN3CCCC3)cnc2C1 [Compound 144] |  |  |  |  | 100 to 500 | 100 to 500
13 | CN1CC=C(c2cnc3c(c2)CN(C(=O)Nc2nc(-c4ccc(F)cc4)ccc2N)C3)CC1 [Compound 253] |  |  |  |  | 100 to 500 | 100 to 500
14 | Nc1ccc(-c2cccnc2)nc1NC(=O)N1Cc2ccc(CO)cc2C1 [Compound 395] |  |  |  |  | 500 to 5000 | > 5000
15 | CN1CC=C(c2cnc3c(c2)CN(C(=O)Nc2nc(-c4cccs4)ccc2N)C3)CC1 [Compound 251] |  |  |  |  | 100 to 500 | 100 to 500
16 | CN(C)Cc1cc2c(cn1)CN(C(=O)Nc1nc(-c3ccc(F)cc3)ccc1N)C2 [Compound 162] |  |  |  |  | 100 to 500 | 100 to 500
17 | Nc1ccc(-c2ccc(F)cc2)nc1NC(=O)N1Cc2cnc(CN3CC(F)(F)C3)cc2C1 [Compound 266] |  |  |  |  | 500 to 5000 | 500 to 5000
18 | Nc1ccc(-c2ccc(F)cc2)nc1NC(=O)N1C[C@@H]2[C@H](C1)[C@H]2NC1COC1 [Compound 267] |  |  |  |  | > 5000 | > 5000
19 | CN1CCN(C[C@@H]2[C@H]3CN(C(=O)Nc4nc(-c5ccc(F)cc5)ccc4N)C[C@@H]23)CC1 [Compound 269] |  |  |  |  | > 5000 | > 5000
20 | CN1CCc2sc(C(=O)Nc3nc(-c4ccco4)ccc3N)nc2C1 [Compound 163] |  |  |  |  | 100 to 500 | 100 to 500
21 | CN1CCC(c2cnc3c(c2)CN(C(=O)Nc2nc(-c4cccnc4)ccc2N)C3)CC1 [Compound 265] |  |  |  |  | 500 to 5000 | 500 to 5000
22 | CN1CCN(c2ccc3c(n2)CN(C(=O)Nc2nc(-c4ccc(F)cc4)ccc2N)C3)CC1 [Compound 391] |  |  |  |  | 100 to 500 | 100 to 500
23 | CN(C)Cc1cnc2c(c1)CN(C(=O)Nc1nc(-c3cccs3)ccc1N)C2 [Compound 145] |  |  |  |  | 100 to 500 | 100 to 500

Continued, values first:

Row | Kd [1] [nM] | residence time [1] [min] | Kd [2] [nM] | residence time [3] [min] | EC50 [4] [nM] | IC50 [5] [nM] | Structure (SMILES)
24 | > 5000 | 49 | > 5000 |  |  |  | Nc1cc(F)c(-c2ccc(F)cc2)cc1NC(=O)N1CCCC1 [Compound 114]
25 | 100 to 500 | 196 | 100 to 500 | 703 |  |  | Nc1cc(F)c(-c2ccc(F)cc2)cc1NC(=O)N1Cc2ccncc2C1 [Compound 100]
26 | 500 to 5000 | 682 | > 5000 | 1200 |  |  | Nc1cnc(-c2ccc(F)cc2)nc1NC(=O)N1Cc2nccnc2C1 [Compound 121]
27 | > 5000 |  | > 5000 |  |  |  | Nc1ncc(-c2ccc(F)cc2)cc1NC(=O)N1CC2CCCC2C1 (stereo not drawn) [Compound 104]
28 | > 5000 |  | > 5000 | 42 |  |  | Nc1ccc(-c2ccc(F)c(F)c2)c(F)c1NC(=O)N1CCCC1 [Compound 117]
29 |  |  |  |  | 100 to 500 | 100 to 500 | Nc1ccc(-c2ccc(F)cc2)nc1NC(=O)N1Cc2cccnc2C1 [Compound 397]
30 | 500 to 5000 | 688 | > 5000 |  |  |  | Nc1cnc(-c2ccc(F)cc2)nc1NC(=O)N1CCCC1 [Compound 110]
31 | > 5000 | 14 | 500 to 5000 | 264 |  |  | Nc1ccc(-c2ccc(F)cc2)nc1NC(=O)C1CCOCC1 [Compound 109]
32 | 100 to 500 | 830 | 500 to 5000 | 1170 |  |  | Nc1ccc(-c2ccc(F)cc2)nc1NC(=O)N1Cc2nccnc2C1 [Compound 120]
33 |  |  |  |  | 500 to 5000 | 500 to 5000 | Nc1ccc(-c2ccc(F)cc2)nc1NC(=O)N1Cc2cc(CN3CC(F)(F)C3)cnc2C1 [Compound 271]
34 | 500 to 5000 | 851 | 500 to 5000 | 634 |  |  | Nc1cnc(-c2ccc(F)cc2)cc1NC(=O)N1CCCC1 [Compound 105]
35 |  |  |  |  | 100 to 500 | 100 to 500 | CN1CCC(c2cnc3c(c2)CN(C(=O)Nc2nc(-c4ccc(F)cc4)ccc2N)C3)CC1 [Compound 252]
36 | 500 to 5000 | 401 | 500 to 5000 | 1430 |  |  | Nc1cnc(-c2ccncc2)cc1NC(=O)N1CCCC1 [Compound 108]
37 | > 5000 | 151 | > 5000 | 540 |  |  | Nc1ccc(-c2ccncc2)nc1NC(=O)N1CCCC1 [Compound 111]
38 |  |  |  |  | 500 to 5000 | 500 to 5000 | Nc1ccc(-c2ccc(F)cc2)nc1NC(=O)N1Cc2cncnc2C1 [Compound 277]
39 |  |  |  |  | 500 to 5000 | 500 to 5000 | Cn1ncc2c1CN(C(=O)Nc1nc(-c3ccc(F)cc3)ccc1N)C2 [Compound 258]
40 |  |  |  |  | 100 to 500 | 100 to 500 | Nc1ccc(-c2ccc(F)cc2)nc1NC(=O)N1Cc2ccc(CN3CCCC3)cc2C1 [Compound 405]
41 |  |  |  |  | 100 to 500 | 100 to 500 | CN(C)Cc1cnc2c(c1)CN(C(=O)Nc1nc(-c3ccc(F)cc3)ccc1N)C2 [Compound 154]
42 |  |  |  |  | 100 to 500 | 100 to 500 | CN1CCC(c2cc3c(cn2)CN(C(=O)Nc2nc(-c4ccc(F)cc4)ccc2N)C3)CC1 [Compound 149]
43 |  |  |  |  | 100 to 500 | 100 to 500 | CC(C)Cc1cnc2c(c1)CN(C(=O)Nc1nc(-c3ccc(F)cc3)ccc1N)C2 [Compound 274]
44 | > 5000 | 121 | > 5000 |  |  |  | Nc1cnc(-c2ccc(F)cc2)cc1NC(=O)C1CCOCC1 [Compound 106]
45 |  |  |  |  | 100 to 500 | 100 to 500 | Nc1ccc(-c2ccc(F)cc2)nc1NC(=O)N1Cc2cc(CN3CC(F)C3)cnc2C1 [Compound 275]
46 |  |  |  |  | 100 to 500 | 100 to 500 | Nc1ccc(-c2ccc(F)cc2)nc1NC(=O)N1Cc2cc(CN3CCC3)cnc2C1 [Compound 272]
47 |  |  |  |  | 100 to 500 | 100 to 500 | Nc1ccc(-c2ccc(F)cc2)nc1NC(=O)N1Cc2cc(CN3CCCC3)cnc2C1 [Compound 155]
48 |  |  |  |  | 500 to 5000 | 100 to 500 | CN1CCN(c2cnc3c(c2)CN(C(=O)Nc2nc(-c4ccc(F)cc4)ccc2N)C3)CC1 [Compound 159]
